We go through 90 molecules from a melting point compilation (Tetko et al.; mined from patent text by program, amines drawn as free bases though some values may be those of a salt).

The molecule `CN(C)c1ccc(NC(=O)C(C#N)C(=O)c2nn(-c3ccccc3)c3c2CSc2ccccc2-3)cc1` (stereo not given) had a melting point of 215 to 216 °C. The value for `COc1ccccc1N1CCN(CCn2c(=O)c3sccc3n(C)c2=O)CC1` was 149 to 151 °C; that for `CN1CC(CCN2CCN(c3ccc(F)cc3)CC2)OC1=O` (stereo not given) was 82 to 84 °C.

Take `CCCN1CC(=O)C(C(=O)OCC)C1=O` (stereo not given): the melting point lay within 123 to 125 °C. The value for `Cc1nc(NC(=O)c2cc(Cl)cc(Cl)c2)sc1C(=O)NCc1ccccc1` was 104 to 105 °C; that for `O=C(CCc1cccc2[nH]ccc12)c1ccccc1O` was 143 °C. The same measure for `CC1=NC(NC(=O)Nc2cccc(C)c2)C(=O)N(CC(=O)N2CCCCCC2)c2c(C)cccc21` (stereo not given): 204 °C; for `COc1ccc(COc2ccc(CSc3ccc(OCC(=O)O)c4c3CCC4)cc2)cc1`: 183 to 185 °C.

For the molecule `Cc1ccc(C(=O)Nc2cc(-c3cccnc3)cc(C(F)(F)F)c2)cc1Nc1nccc(-c2cccnc2)n1`, the melting point lay in the range of 275 to 279 °C. For the molecule `COc1ccc(-c2c3ccccc3cc3sc4ccccc4c23)cc1C#N`, the melting point lay in the range of 230 to 232 °C.

Molecule `COc1cc(N)c(Cl)cc1C(=O)NCC1CCN(CCOCc2ccccc2)CC1` gave a melting point of 123 to 125 °C. The same measure for `CCOC(=O)C(c1ccc(CN2CCOCC2)cn1)c1cc(C#N)ccc1[N+](=O)[O-]` (stereo not given): 83 to 84 °C. The value for `Clc1ccc(C(Br)Br)c(C(Br)Br)c1` was 108 to 111 °C; that for `O=C1C(=O)c2ccccc2C2=C1SCC1(CCCCC1)O2` was 194 to 195 °C.

In turn, `CN1C(=O)C(C(C)(C)C)NNC1=S` (stereo not given) had a melting point of 214 °C.

As for `CC(C)(O)C1CCN(S(=O)(=O)c2cc(C#N)ccc2Oc2cc(Cl)ccc2Cl)CC1`, the melting point was in the range of 221 to 225 °C. The same measure for `Cc1ccc([N+](=O)[O-])cc1Nc1cccc(Br)c1`: 114 to 116 °C; for `O=[N+]([O-])c1ccc2c(c1)C=CCCO2`: 94 to 95.5 °C; for `Nc1nc(N2CCN(CCCC3(c4ccc(F)cc4)OCCO3)CC2)ccc1[N+](=O)[O-]`: 117 to 118 °C. The same measure for `COc1cc2cn[nH]c(=O)c2cc1OC`: 254 to 256 °C; for `CC(C)n1cnc2c(NCc3cccc(O)c3O)nc(NC[C@@H](C)O)nc21`: 182 to 183 °C; for `COC(=O)C(O)C(NCc1ccccc1)c1ccc([N+](=O)[O-])cc1` (stereo not given): 147 to 149 °C. Turning to `CCOC(Nc1ccccc1)(OCC)c1ccnc(C(=O)c2ccc(Cl)c(Cl)c2)c1`, the melting point lay within 113 to 114 °C. In turn, `Cc1ccc(C(=S)c2cc(Cl)cc3c2NC(=O)C3)cc1` displayed a melting point of 179 to 181 °C. The value for `Oc1cccc(-n2nc(-c3ccccc3)c3cccnc32)c1` was 142 to 144 °C; that for `CCCCCCCNC(=O)Nc1ccc(O)cc1C(=O)NCC1CCN(C(c2ccccc2)c2ccccc2)CC1` was 165 to 167 °C; that for `N#Cc1ccc(C2(Cc3ccccc3)C(=O)N(CC3CC3)Cc3cncn32)cc1` (stereo not given) was 156 to 158 °C.

For the molecule `CC(=O)NCc1nc2c(N)nc(C)c(C)c2n1CC(C)C`, the melting point fell in the range of 162 to 164 °C. The value for `O=C(O)C1=Cc2cc(F)cc(Cl)c2OC1C(F)(F)F` (stereo not given) was 240 to 241 °C; that for `C=CC(O)c1cccc(C=Cc2ccc3ccc(Cl)cc3n2)c1` (stereo not given) was 110 to 112 °C; that for `CCCCCCOc1ccc(C=[N+]([O-])C(C)(C)C)cc1` was 69 °C. The same measure for `COC(=O)CC(C(=O)OC)C(=O)c1ccccc1OC` (stereo not given): 75 to 76 °C; for `CC(C)(C)OC(=O)c1ncn2c1[C@@H]1CCCN1C(=O)c1c-2cccc1C(F)(F)F`: 201 to 203 °C; for `Oc1ccc(CCc2cc(O)c(O)c(O)c2)cc1`: 180 to 188 °C. The same measure for `CCOC(=O)C(C)c1ccc(NC(C)=O)cc1` (stereo not given): 94.5 to 95.5 °C; for `c1ccc2c(c1)NCc1cscc1N2`: 167 to 169 °C. The molecule `COc1ccc([C@@H]2Sc3ccccc3N(CCN(C)C)C(=O)[C@@H]2OC(=O)c2ccc([N+](=O)[O-])cc2)cc1` had a melting point of 113 to 114 °C.

Take `CC(Oc1ccccc1[N+](=O)[O-])c1nnc(N)s1` (stereo not given): the melting point was 137 to 142 °C. The molecule `COCc1c(C(=O)O)ncc2c1c1c(Oc3ccc([N+](=O)[O-])cc3)cccc1n2CC(=O)N(C)CCc1ccccc1` came in with a melting point of 231 to 232 °C. As for `CC(C)(C)CC(C)(C)c1cc(-n2nc3ccccc3n2)c(O)c(C(C)(C)c2ccccc2)c1`, the melting point is 109 to 111 °C. `CC1=NC(=NOC(=O)N(C)C)SC1(C)C` had a melting point of 108 to 110 °C. The value for `Oc1ccc(Nc2nc(NCc3ccco3)nc(Nc3ccc4[nH]ccc4c3)n2)cc1` was 258 to 260 °C; that for `Cn1c(=O)c(-c2ccc(Cl)cc2Cl)cc2c3cc(-c4nc(NC(=O)C5CC5)no4)ccc3n(C)c21` was 292 to 295 °C. The same measure for `CC(C)C(NC(=O)OCc1ccccc1)C(=O)Nc1nncs1` (racemic): 162 to 164 °C; for `COC(=O)NNC(=O)C(F)(F)F`: 105 °C; for `CCOC(=O)Cc1c(-c2ccc(Cl)cc2)nn(-c2ccccc2)c1-c1ccc(Cl)cc1`: 120 to 122 °C.

Molecule `CCOC(=O)C1CCCN2CCC3c4cc(Cl)ccc4N(N)C3C12` (stereo not given) gave a melting point of 172 to 175 °C. The same measure for `O=c1nc(-c2ccccc2)oc2ccccc12`: 104 to 105 °C. `O=S1(=O)CCN2C=CC=C(c3ccc(Oc4ccc(F)cc4)cc3)C2=N1`: the melting point lay in the range of 266 to 267 °C. The same measure for `ON=C(Cl)c1ccccc1`: 50 to 51 °C; for `O=C1CC(c2cccc(O)c2)=Nc2ccc(N3CCCC3)cc21`: 364 to 367 °C; for `O=C1CCC(N2C(=O)c3cccc(NCc4cccs4)c3C2=O)C(=O)N1` (stereo not given): 223 to 225 °C. On to `Fc1ccccc1[C@]1(Cn2nc[nH]c2=S)O[C@H]1c1ccccc1Cl` (racemic), for which the melting point stood at 179 °C.

`COC(=O)C=CC=CCSc1ccc2ccccc2c1` registered a melting point of 73 to 75 °C. The value for `CC(C)Oc1ccc(NC(=S)NCc2ccoc2)cc1` was 89 to 90 °C; that for `Cc1nc(NN)nnc1-c1ccccc1` was 136 to 138 °C.

On to `COC(=O)c1cc(Br)c(O)c(O)c1Cl`, for which the melting point is 103 °C. The same measure for `CC(C)(C)OC(=O)N1CCN(c2ccc(NC(=O)Nc3cc(Cl)ccc3N)cc2)CC1`: 187 to 189 °C.

`CCCCCc1ccc(OCC23CCC(CCC)(CC2)CC3)c(C#N)c1C#N` returned a melting point of 133 °C. The value for `O=C(CCCC=CCC1C(O)CC(O)C1C=CC(O)CCc1ccccc1)ON1C(=O)c2ccccc2C1=O` (stereo not given) was 83.2 to 84.5 °C; that for `COCCn1cc(C(=O)NCc2ccc(Cl)cc2)c(=O)c2cc(CN(C)C[C@@H](O)c3ccccc3)sc21` was 105 to 106 °C; that for `O=C(O)c1ccc(-n2cnnc2)cc1` was more than 300 °C. The same measure for `Cc1ccccc1S(=O)(=O)Nc1onc(C)c1Br`: 93 to 96 °C; for `CCN(CC)CCN1C(=O)c2cc(N)cc3cc([N+](=O)[O-])cc(c23)C1=O`: 174 °C; for `CC1CCc2ncc(-c3ccccc3)c(=O)n21` (stereo not given): 118 to 122 °C. The molecule `CC(=O)NCC#CCn1ccnc1` gave a melting point of 93 to 95 °C. For `CCc1nn(C2CCCC2)c2c1CCN(c1ccc(OC)cc1)C2=O`, the melting point came out at 64.7 °C. The molecule `CCCCCCCCCCCCCCCCOCC(CN)COC` (stereo not given) gave a melting point of 49 to 51 °C. The value for `CCS(=O)(=O)N[C@H](C(=O)NCCc1cc(Br)c(O)c(OC)c1)C(C)C` was 145 to 147 °C; that for `Nc1nc(Cl)c(Cl)c(NCC2(CO)CCC2)n1` was 179 to 181 °C; that for `O=C(O)c1coc2ccc(Br)cc2c1=O` was 260 to 264 °C. The same measure for `O=C1CCC(N2C(=O)c3cccc(CNC(=O)c4cnccn4)c3C2=O)C(=O)N1` (stereo not given): more than 260 °C. The value for `CCCCOC(=O)c1ccccc1SN(C(=O)NC(=O)c1c(F)cccc1F)c1ccc(C(F)(F)F)cc1` was 79 to 81 °C; that for `COc1c(CN2CCC(=O)C(C(c3ccccc3)c3ccccc3)C2)cc(C(C)(C)C)cc1C(C)(C)C` (stereo not given) was 136 to 138 °C; that for `CCOC(=O)C=CC=Cc1cn(-c2cccnc2)c2ccccc12` was 112 to 113 °C.

In turn, `O=C(C=C(Cl)Cl)c1cc(F)c(Cl)cc1Cl` came in with a melting point of 64 to 65 °C. Consider `N#CC1(C(C(=O)O)C(=O)O)CCCCC1`, for which the melting point stood at 99.9 °C. The same measure for `O=S(CCCCCOc1ccc(C2=C(c3ccccc3)CCCc3cc(O)ccc32)cc1)CCCC(F)(F)F` (stereo not given): 145 °C; for `CCC1(CC)c2cc(I)ccc2-c2ccc(C=O)cc21`: 138 to 140 °C; for `O=[N+]([O-])c1cccc2c(CO)ccnc12`: 148 °C. For `CC(C(=O)O)c1ccc2cc(OCc3ccc4ccccc4n3)ccc2c1` (stereo not given), the melting point lay in the range of 186 to 187 °C. The same measure for `CN(Cc1ccc2c(Br)c(O)ccc2c1)C(=O)c1cn(Cc2ccccc2)c2ccccc12`: 181 to 182 °C; for `CCOC(=O)c1cccc(NC(=O)NCC(=O)O)c1`: 174 °C; for `CCC1(Cl)C(=O)c2c(cc(OCC(=O)O)c(Cl)c2Cl)C1C` (stereo not given): 208 to 210 °C. The value for `CCC1C(O)C2C3CCC(C(C)CCC(=O)O)C3(C)CCC2C2(C)CCC(O)CC12` (stereo not given) was 110 °C. `CNC(=O)C(Cc1ccc(OC)cc1)NC(=O)C(CC(C)C)C(CC(=O)OC)SC(C)=O` (stereo not given) displayed a melting point of 118 to 135 °C.

Molecule `CC(C)Cc1ccccc1Sc1c(O)cc(-c2ccccc2)oc1=O` showed a melting point of 195 °C.

As for `CC(C)N1CC(COc2cccc3c(=O)[nH]ccc23)OC1=O` (stereo not given), the melting point was in the range of 215 to 216 °C. As to `C#CCn1c(=O)sc2cc(F)c(-n3c(=O)cc(C)n(C)c3=O)cc21`, the melting point lay within 180 to 181 °C.

`COc1ccc(Cn2c3c(c4cc(F)cc(F)c42)CCCC3CC(=O)O)cc1` (stereo not given) gave a melting point of 149 to 151 °C.
